# Test results: patent publication US20250319015A1, “VACCINIUM MACROCARPON EXTRACT AND ANTI-AGEING COSMETIC EFFECTS THEREOF” (SOCIETE INDUSTRIELLE LIMOUSINE D'APPLICATION BIOLOGIQUE, priority 2021, published 2025)
# Where two headings read alike, the source gives them in different places. Marks after values point to notes of the source that are not given here.
# How the values were obtained:
# loricrin = assay: Loricrin synthesis in reconstructed epidermises (immunohistofluorescence); assay type: cell-based, human; conditions: older reconstructed epidermises, 10 μM Retinol
# Method: (§1) This study was carried out on normal and older reconstructed epidermises. The epidermal construction was evaluated using a Hematoxylin Eosin (HE) stain and the synthesis of the barrier function markers by immunohistofluorescence. The procedure of the study is described below. […] The epidermides are recovered, fixed, dehydrated, and enclosed in paraffin. Sections (4 μm) are then made using a microtome. […] Viewing is performed using a microscope coupled to an image analysis system. The thickness of the epidermises obtained was measured on the histological sections produced. The rate of the various synthesized markers is proportional to the intensity of green fluorescence present on the reconstructed epidermises. A quantitative analysis of the images was carried out using an image analysis script. The results are expressed in arbitrary units (AU).
# older human cells = assay: Gene expression by quantitative PCR, structural elements of the DEJ, older cells; assay type: cell-based; conditions: 1 μM Retinol
# Method: This study was carried out on 34 genes involved in the various processes related to the establishment of: • the skin barrier function: proliferation, hydration, cohesion, differentiation, desquamation, innate immunity, anti-oxidant and inflammation system (cf. Table 9: Proliferation, Hydration, Cohesion, Differentiation, Anti-Radical and Inflammation). • the dermal-epidermal junction DEJ; • the dermal matrix; organization and degradation of the fibers, hydration and inflammation (cf. Table 9: Matrix Organization, Matrix Degradation, Hydration, Proteoglycan, Growth and Inflammation Factors). […] The procedure of the study is described below. The young and older human cells are seeded and incubated at 37° C. […] After several days, the cells are recovered and the total RNA extracted. The RNAs were reverse-transcribed and the complementary DNAs obtained were analyzed by the quantitative PCR technique. The mRNAs of internal reference controls were analyzed in parallel with the mRNAs of the markers involved in the barrier function of the epidermis, in the DEJ and in the dermal matrix. The incorporation of fluorescence is measured continuously using a thermal cycler. The RQ (relative quantification) analysis is performed using software.
# [1] = system: healthy Caucasian female volunteers; assay: Complexion radiance by visual scoring by experts, Caucasian volunteers; assay type: in vivo, human; conditions: Retinol 0.075%
# Method: The complexion radiance is evaluated by experts using the following parameters: radiance, […], olive color and eye fatigue.
# [2] = system: healthy Caucasian female volunteers; conditions: for Parameter a* (skin redness), change compared to placebo: Retinol 0.075%
# Method: (§2) This study was carried out on 3 groups of 18 healthy, female volunteers, aged 45 to 66 years and presenting with crow's feet wrinkles. Each of the volunteers applied two of the three formulae to half the face twice-daily in a randomized manner for 42 days.
# claudin-1 = assay: Claudin-1 synthesis in reconstructed epidermises (immunohistofluorescence); assay type: cell-based, human; conditions: older reconstructed epidermises, 10 μM Retinol
# Method: as §1
# [3] = system: healthy Caucasian female volunteers; assay: Quality of the dermal fibers by LC-OCT, Caucasian volunteers; assay type: in vivo, human; conditions: Retinol 0.075%
# Method: (§3) This study was carried out on 3 groups of 18 healthy female volunteers, aged 45 to 66 years and presenting with crow's feet wrinkles. Each of the volunteers applied two of the three study formulae to half the face twice-daily in a randomized manner for 42 days.
# Acquisitions carried out by LC-OCT after 21 and 42 days of treatment at the cheeks allowed evaluation of the structure of the quality of the fibers.
# [4] = system: healthy Caucasian female volunteers; assay: Anti-wrinkle effect by light projection (crow's feet), Caucasian volunteers; assay type: in vivo, human; conditions: Retinol 0.075%
# Method: The anti-wrinkle effect is evaluated according to the roughness parameter Sa, evaluated on the crow's feet zone by light projection and on the negative volume, evaluated on the same zone.
# [5] = system: healthy Caucasian female volunteers; assay: Structure of the dermal-epidermal junction by LC-OCT, Caucasian volunteers; assay type: in vivo, human; conditions: Retinol 0.075%
# Method: as §3
# Acquisitions carried out by LC-OCT after 21 and 42 days of treatment at the cheeks allowed evaluation of the structure of the dermal-epidermal junction
# [6] = system: human keratinocytes from older donors (≥60 years); assay: Gene expression by quantitative PCR on older human keratinocytes; assay type: cell-based; conditions: 1 μM Retinol
# Method: The procedure of the study is described below. The young and older human cells are seeded and incubated at 37° C. […] After several days, the cells are recovered and the total RNA extracted. The RNAs were reverse-transcribed and the complementary DNAs obtained were analyzed by the quantitative PCR technique. The mRNAs of internal reference controls were analyzed in parallel with the mRNAs of the markers involved in the barrier function of the epidermis, in the DEJ and in the dermal matrix. The incorporation of fluorescence is measured continuously using a thermal cycler. The RQ (relative quantification) analysis is performed using software.
# aquaporin 3 = assay: Aquaporin 3 synthesis in reconstructed epidermises (immunohistofluorescence); assay type: cell-based, human; conditions: older reconstructed epidermises, 10 μM Retinol
# Method: as §1
# [7] = system: healthy Caucasian female volunteers; assay: Transepidermal water losses (Tewameter), Caucasian volunteers; assay type: in vivo, human; conditions: Retinol 0.075%
# Method: Transepidermal water losses (TEWL) measurements at the cheeks were carried out using a Tewameter® before and after 21 and 42 days of twice-daily application.
# as §2
# [8] = system: healthy Caucasian female volunteers; conditions: retinol 0.075%, 18 volunteers
# Method: as §2
# collagen I = assay: Collagen I network by immunocytology on older human fibroblasts; assay type: cell-based; conditions: 0.1 μM Retinol
# Method: Immunocytological labeling of collagen I is carried out by fixing and permeabilization using primary antibody I and secondary antibody coupled to a fluorophore. A quantitative analysis was carried out by reading the fluorescence of the various conditions tested using a fluorometer. The intensity of the collagen I network is proportional to the intensity of green fluorescence present. The results are expressed in fluorescence value (AU).
smiles,measurement,setting,value
"CC1=C(/C=C/C(C)=C/C=C/C(C)=C/CO)C(C)(C)CCC1 [Retinol, retinol]",Ability to restore loricrin synthesis (%),loricrin,0%
same,Synthesis of loricrin (×10^4 AU),loricrin; 48 hours,177 ×10^4 AU
same,COL4A1: Efficacy of retinol/older control (%),older human cells,−5%
same,COL7A1: Efficacy of retinol/older control (%),older human cells,−21%
same,COL17A1: Efficacy of retinol/older control (%),older human cells,−16%
same,LAMA3: Efficacy of retinol/older control (%),older human cells,−9%
same,COL4A1 expression (qPCR),older human cells; young cells control=100,38
same,COL7A1 expression (qPCR),older human cells; young cells control=100,68
same,COL17A1 expression (qPCR),older human cells; young cells control=100,81
same,LAMA3 expression (qPCR),older human cells; young cells control=100,94
same,"Eye fatigue, change compared to placebo",[1]; D 21,−2%
same,"Olive color, change compared to placebo",[1]; D 21,−11%
same,"Pinkness, change compared to placebo",[1]; D 21,+14%
same,"Radiance, change compared to placebo",[1]; D 21,+6%
same,"Eye fatigue, change compared to placebo",[1]; J42,−10%
same,"Olive color, change compared to placebo",[1]; J42,−10%
same,"Pinkness, change compared to placebo",[1]; J42,+19%
same,"Radiance, change compared to placebo",[1]; J42,+11%
same,"Appearance of skin redness, parameter a* (in words)","[2]; 0.075% of retinol, from 21 days of treatment",significantly increases parameter a*
same,"Parameter a* (skin redness), change compared to placebo",[2]; D 21,+5%
same,"Parameter a* (skin redness), change compared to placebo",[2]; D 42,+5%
same,Ability to restore claudin-1 synthesis (%),claudin-1,0%
same,Synthesis of claudin-1 (×10^4 AU),claudin-1; 48 hours,136 ×10^4 AU
same,"Fiber Quality, change compared to placebo",[3]; D 21,+3%
same,"Fiber Quality, change compared to placebo","[3]; D 21, listed as retinol",+3%
same,"Fiber Quality, change compared to placebo",[3]; D 42,+12%
same,"Negative Volume (crow's feet), change compared to placebo",[4]; D 21,−12%
same,"Parameter Sa (roughness, crow's feet), change compared to placebo",[4]; D 21,−5%
same,"Negative Volume (crow's feet), change compared to placebo",[4]; D 42,−20%
same,"Parameter Sa (roughness, crow's feet), change compared to placebo",[4]; D 42,−7%
same,"Negative Volume (crow's feet), change compared to placebo","[4]; D 42, listed as retinol",−20%
same,"Sinuosity of the DEJ, change compared to placebo",[5]; D 21,+2%
same,"Sinuosity of the DEJ, change compared to placebo","[5]; D 21, listed as retinol",+2%
same,"Sinuosity of the DEJ, change compared to placebo",[5]; D 42,+3%
same,"Sinuosity of the DEJ, change compared to placebo","[5]; D 42, listed as retinol",+3%
same,AQP3: Efficacy of retinol/older control (%),[6],+13%
same,CD44: Efficacy of retinol/older control (%),[6],+77%
same,CLDN1: Efficacy of retinol/older control (%),[6],−52%
same,CXCL8: Efficacy of retinol/older control (%),[6],+189%
same,DSG: Efficacy of retinol/older control (%),[6],−99%
same,FLG: Efficacy of retinol/older control (%),[6],−76%
same,HAS3: Efficacy of retinol/older control (%),[6],+425%
same,IVL: Efficacy of retinol/older control (%),[6],+126%
same,KRT10: Efficacy of retinol/older control (%),[6],−97%
same,LOR: Efficacy of retinol/older control (%),[6],−95%
same,MKI67: Efficacy of retinol/older control (%),[6],+44%
same,S100A7: Efficacy of retinol/older control (%),[6],+1384%
same,S100A8: Efficacy of retinol/older control (%),[6],+23%
same,S100A9: Efficacy of retinol/older control (%),[6],+108%
same,SOD1: Efficacy of retinol/older control (%),[6],+7%
same,TGM1: Efficacy of retinol/older control (%),[6],−31%
same,AQP3 expression (qPCR),[6]; young cells control=100,69
same,CD44 expression (qPCR),[6]; young cells control=100,147
same,CLDN1 expression (qPCR),[6]; young cells control=100,33
same,CXCL8 expression (qPCR),[6]; young cells control=100,729
same,DSG expression (qPCR),[6]; young cells control=100,1
same,FLG expression (qPCR),[6]; young cells control=100,9
same,HAS3 expression (qPCR),[6]; young cells control=100,357
same,IVL expression (qPCR),[6]; young cells control=100,120
same,KRT10 expression (qPCR),[6]; young cells control=100,2
same,LOR expression (qPCR),[6]; young cells control=100,1
same,MKI67 expression (qPCR),[6]; young cells control=100,95
same,S100A7 expression (qPCR),[6]; young cells control=100,564
same,S100A8 expression (qPCR),[6]; young cells control=100,256
same,S100A9 expression (qPCR),[6]; young cells control=100,397
same,SOD1 expression (qPCR),[6]; young cells control=100,95
same,TGM1 expression (qPCR),[6]; young cells control=100,47
same,Ability to restore aquaporin 3 synthesis (%),aquaporin 3,+100%
same,Aquaporin 3 synthesis (×10^4 AU),aquaporin 3; 48 hours,355** ×10^4 AU
same,"Water loss, change compared to placebo",[7]; D 21,+24%
same,"Water loss, change compared to placebo","[7]; D 21, listed as retinol",+24%
same,"Water loss, change compared to placebo",[7]; D 42,+15%
same,"Water loss, change compared to placebo","[7]; D 42, listed as retinol",+15%
same,Incident rate of adverse effects,[8],17%
same,Subjects who demonstrated adverse effects likely caused by the study product,[8]; 42 days,three
same,Synthesis of the collagen I network (×10^3 AU),collagen I,174 ×10^3 AU
